Measurements taken from ChEMBL document CHEMBL4699592, “Nature-Inspired (di)Azine-Bridged Bisindole Alkaloids with Potent Antibacterial In Vitro and In Vivo Efficacy against Methicillin-Resistant Staphylococcus aureus” (J Med Chem, 2020).
≈ marks a conversion by molar mass, not a printed value. Calls of active or inactive are those of the source. The calls are words filed in the database; no cut-off is given here.

How the values were obtained:
Acinetobacter baumannii [1] = experiment: Synergistic antibacterial activity against Acinetobacter baumannii ATCC BAA-1605 assessed as FICI after 24 hrs in presence of colistin by checkerboard assay; type: functional
Pseudomonas aeruginosa [2] = experiment: Synergistic antibacterial activity against Pseudomonas aeruginosa ATCC 27853 assessed as FIC after 24 hrs in presence of colistin by checkerboard assay relative to test compound MIC; type: functional
[3] = Solubility of compound in pH 7.7 DMSO:PBS solution; type: physicochemical; settings: buffer
Acinetobacter baumannii [4] = experiment: Synergistic antibacterial activity against Acinetobacter baumannii ATCC BAA-1605 assessed as FIC after 24 hrs in presence of colistin by checkerboard assay relative to test compound MIC; type: functional
Acinetobacter baumannii [5] = experiment: Synergistic antibacterial activity against Acinetobacter baumannii ATCC BAA-1605 assessed as FIC after 24 hrs in presence of colistin by checkerboard assay relative to colistin; type: functional
Staphylococcus aureus [6] = experiment: Antibacterial activity against vancomycin-sensitive Staphylococcus aureus T144 infected in Balb/c mouse assessed as increase in wound healing at 5 mg/kg applied topically measured daily for 12 days by microscopic analysis; type: functional, organism-based; settings: time 12.0 day
[7] = Selectivity index, ratio of IC50 for cytotoxicity against human THP-1 cells to MIC90 for antibacterial activity against […] Staphylococcus aureus ATCC 700699; type: toxicity, cell-based; settings: read-out: Selectivity Index
HEK293 = experiment: Cytotoxicity against HEK293 cells assessed as reduction in cell viability at >12.5 uM measured after 48 hrs by resazurin dye based fluorescence assay; settings: human, hek293, 48 h
Staphylococcus aureus [8] = experiment: Bactericidal activity against […] Staphylococcus aureus ATCC 700699 assessed as colony forming units at 5 fold MIC measured after 24 hrs by time kill assay; type: functional
Acinetobacter baumannii [9] = experiment: Antibacterial activity against Acinetobacter baumannii ATCC BAA-1605 at 0.78 to 100 uM after 24 hrs by broth microdilution method; type: functional, organism-based; settings: dose microM 0.78-100, time 24.0 hrs
Klebsiella pneumoniae [10] = experiment: Synergistic antibacterial activity against Klebsiella pneumoniae ATCC 700603 assessed as FICI after 24 hrs in presence of colistin by checkerboard assay; type: functional
Staphylococcus aureus [11] = experiment: Inhibition of Staphylococcus aureus ATCC 700699 N-terminal His6-tagged pyruvate kinase expressed in Escherichia coli NiCo21(DE3) at 12.5 uM using phosphoenolpyruvate as substrate measured for 5 mins by LDH-coupled assay
Pseudomonas aeruginosa [12] = experiment: Antibacterial activity against Pseudomonas aeruginosa ATCC 27853 measured after 24 hrs by broth microdilution method; type: functional
MRC5 = experiment: Cytotoxicity against human MRC5 cells assessed as reduction in cell viability at >=12.5 uM measured after 48 hrs by resazurin dye based fluorescence assay; settings: mrc5, 48 h
[13] = tested on: Mycobacterium tuberculosis; experiment: Antibacterial activity against Mycobacterium tuberculosis H37Rv at 0.78 to 100 uM after 5 days by resazurin dye based fluorescence assay; type: functional, organism-based; settings: dose microM 0.78-100, time 5.0 day
Staphylococcus aureus [14] = experiment: Antibacterial activity against vancomycin-sensitive Staphylococcus aureus T144 infected in Balb/c mouse assessed as reduction in bacterial burden at 5 mg/kg applied topically measured after 12 days by colony counting method; type: functional, organism-based; settings: time 12.0 day
Enterococcus faecalis [15] = experiment: Antibacterial activity against Enterococcus faecalis ATCC 51299 at 0.78 to 100 uM after 24 hrs by broth microdilution method; type: functional, organism-based; settings: dose microM 0.78-100, time 24.0 hrs
Klebsiella pneumoniae [16] = experiment: Synergistic antibacterial activity against Klebsiella pneumoniae ATCC 700603 assessed as FIC after 24 hrs in presence of colistin by checkerboard assay relative to test compound MIC; type: functional
Pseudomonas aeruginosa [17] = experiment: Synergistic antibacterial activity against Pseudomonas aeruginosa ATCC 27853 assessed as FIC after 24 hrs in presence of colistin by checkerboard assay relative to colistin; type: functional
[18] = Cytotoxicity against human CLS-54 cells assessed as reduction in cell viability at >12.5 uM measured after 48 hrs by resazurin dye based fluorescence assay; settings: cls-54, 48 h
Staphylococcus aureus [19] = experiment: Antibacterial activity against methicillin-resistant Staphylococcus aureus USA300 LAC at 0.15 to 25 uM incubated for 24 hrs under low glucose medium by resazurin dye based fluorescence assay; type: functional, organism-based; settings: dose microM 0.15-25, time 24.0 hrs
Staphylococcus aureus [20] = experiment: Antibacterial activity against […] Staphylococcus aureus ATCC 700699 assessed as ratio of MIC before and after 38 passages by broth microdilution method; type: functional
Staphylococcus aureus [21] = experiment: Bactericidal activity against […] Staphylococcus aureus ATCC 700699 assessed as reduction in bacterial viability at 5 fold MIC incubated for 6 hrs by time kill assay relative to control; type: functional
Staphylococcus aureus [22] = experiment: Antibacterial activity against […] Staphylococcus aureus ATCC 700699 after 24 hrs by broth microdilution method; type: functional
THP-1 = experiment: Cytotoxicity against human THP-1 cells assessed as reduction in cell viability at >=12.5 uM measured after 48 hrs by resazurin dye based fluorescence assay; settings: thp-1, 48 h
Enterococcus faecium [23] = experiment: Antibacterial activity against vancomycin-resistant Enterococcus faecium ATCC 700221 at 0.78 to 100 uM after 24 hrs by broth microdilution method; type: functional, organism-based; settings: dose microM 0.78-100, time 24.0 hrs
[24] = Solubility of compound in pH 7.7 PBS buffer; type: physicochemical
Escherichia coli [25] = experiment: Antimicrobial activity against Escherichia coli ATCC BAA 2469 after 24 hrs in presence of colistin by checkerboard assay relative to test compound MIC; type: functional
Enterococcus faecalis [26] = experiment: Antibacterial activity against Enterococcus faecalis ATCC 29212 at 0.78 to 100 uM after 24 hrs by broth microdilution method; type: functional, organism-based; settings: dose microM 0.78-100, time 24.0 hrs
[27] = Selectivity index, ratio of IC50 for cytotoxicity against human MRC5 cells to MIC90 for antibacterial activity against […] Staphylococcus aureus ATCC 700699; type: toxicity, cell-based; settings: read-out: Selectivity Index
Staphylococcus aureus [28] = experiment: Antibacterial activity against methicillin-resistant pyruvate kinase deficient Staphylococcus aureus USA300 LAC at 0.15 to 25 uM incubated for 24 hrs under low pyruvate containing medium by resazurin dye based fluorescence assay; type: functional, organism-based; settings: dose microM 0.15-25, time 24.0 hrs
Escherichia coli [29] = experiment: Antimicrobial activity against Escherichia coli ATCC BAA 2469 after 24 hrs by broth microdilution assay; type: functional
Erythrocyte = experiment: Hemolytic activity against sheep erythrocytes up to 100 uM measured after 1 hr; type: ADME, cell-based, Ovis aries
Escherichia coli [30] = experiment: Synergistic antimicrobial activity against Escherichia coli ATCC BAA 2469 assessed as FIC after 24 hrs in presence of colistin by checkerboard assay relative to test compound MIC; type: functional
Escherichia coli [31] = experiment: Synergistic antimicrobial activity against Escherichia coli ATCC BAA 2469 assessed as FIC after 24 hrs in presence of colistin by checkerboard assay relative to colistin; type: functional
Staphylococcus aureus [32] = experiment: Antibacterial activity against vancomycin-sensitive Staphylococcus aureus T144 infected in Balb/c mouse peritonitis-sepsis model assessed as increase in survival at 5 mg/kg, ip measured for 48 hrs; type: functional, organism-based
Klebsiella pneumoniae [33] = experiment: Antibacterial activity against Klebsiella pneumoniae ATCC 700603 after 24 hrs in presence of colistin by checkerboard assay relative to test compound MIC; type: functional
Klebsiella pneumoniae [34] = experiment: Synergistic antibacterial activity against Klebsiella pneumoniae ATCC 700603 assessed as FIC after 24 hrs in presence of colistin by checkerboard assay relative to colistin; type: functional
Escherichia coli [35] = experiment: Synergistic antimicrobial activity against Escherichia coli ATCC BAA 2469 assessed as FICI after 24 hrs in presence of colistin by checkerboard assay; type: functional
Klebsiella pneumoniae [36] = experiment: Antibacterial activity against Klebsiella pneumoniae ATCC 700603 after 24 hrs by broth microdilution method; type: functional
HepG2 = experiment: Cytotoxicity against human HepG2 cells assessed as reduction in cell viability at >12.5 uM measured after 48 hrs by resazurin dye based fluorescence assay; settings: hepg2, 48 h
[37] = target: Pyruvate kinase PKM (Oryctolagus cuniculus) (UniProt P11974); experiment: Inhibition of rabbit muscle pyruvate kinase up to 12.5 uM using phosphoenolpyruvate as substrate measured for 5 mins by LDH-coupled assay; settings: dose microM <=12.5, time 5.0 min
Sequence of Pyruvate kinase PKM (Oryctolagus cuniculus) (P11974 whole entry): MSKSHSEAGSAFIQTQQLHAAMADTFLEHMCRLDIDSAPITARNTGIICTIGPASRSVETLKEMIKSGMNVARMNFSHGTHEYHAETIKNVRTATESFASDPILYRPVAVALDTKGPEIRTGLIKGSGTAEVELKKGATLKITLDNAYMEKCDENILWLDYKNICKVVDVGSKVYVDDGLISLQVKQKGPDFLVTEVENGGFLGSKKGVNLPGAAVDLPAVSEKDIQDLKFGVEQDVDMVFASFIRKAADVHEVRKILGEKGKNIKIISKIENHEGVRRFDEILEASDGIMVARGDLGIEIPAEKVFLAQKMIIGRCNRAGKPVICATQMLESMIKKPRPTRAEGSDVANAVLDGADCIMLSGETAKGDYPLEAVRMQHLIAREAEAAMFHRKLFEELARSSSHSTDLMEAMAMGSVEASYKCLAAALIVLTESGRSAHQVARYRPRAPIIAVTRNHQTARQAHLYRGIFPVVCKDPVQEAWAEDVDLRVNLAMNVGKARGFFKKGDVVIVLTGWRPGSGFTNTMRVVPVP

Pseudomonas aeruginosa [38] = experiment: Synergistic antibacterial activity against Pseudomonas aeruginosa ATCC 27853 assessed as FICI after 24 hrs in presence of colistin by checkerboard assay; type: functional
Staphylococcus aureus [39] = experiment: Antibacterial activity against methicillin-resistant Staphylococcus aureus USA300 LAC at 0.15 to 25 uM incubated for 24 hrs under low pyruvate containing medium by resazurin dye based fluorescence assay; type: functional, organism-based; settings: dose microM 0.15-25, time 24.0 hrs
Staphylococcus aureus [40] = experiment: Antibacterial activity against methicillin susceptible Staphylococcus aureus ATCC 25923 at 0.78 to 100 uM after 24 hrs by broth microdilution method; type: functional, organism-based; settings: dose microM 0.78-100, time 24.0 hrs
Acinetobacter baumannii [41] = experiment: Antibacterial activity against Acinetobacter baumannii ATCC BAA-1605 after 24 hrs by broth microdilution method; type: functional
Enterococcus faecium [42] = experiment: Antibacterial activity against vancomycin-resistant Enterococcus faecium ATCC 35667 at 0.78 to 100 uM after 24 hrs by broth microdilution method; type: functional, organism-based; settings: dose microM 0.78-100, time 24.0 hrs

## Clc1ccc2[nH]cc(-c3cnc(-c4c[nH]c5ccc(Cl)cc45)nc3)c2c1
Acinetobacter baumannii [1]
  fractional inhibitory concentration index (FICI): <=0.3125
Pseudomonas aeruginosa [2]
  FIC: <=0.0625
[3]
  solubility: Insoluble
Acinetobacter baumannii [4]
  FIC: <=0.0625
Acinetobacter baumannii [5]
  FIC: 0.25
Staphylococcus aureus [6]
  Activity: Active
[7]
  selectivity ratio: 32
HEK293
  Activity: Toxic
Staphylococcus aureus [8]
  Activity: <10 CFU/ml
Acinetobacter baumannii [9]
  Activity: Active
Klebsiella pneumoniae [10]
  fractional inhibitory concentration index (FICI): <=0.25
Staphylococcus aureus [11]
  inhibition: inactive
Pseudomonas aeruginosa [12]
  MIC: > 100 µM
MRC5
  Activity: Toxic
[13]
  Activity: Active
Staphylococcus aureus [14]
  Activity: Active
Enterococcus faecalis [15]
  Activity: Active
Klebsiella pneumoniae [16]
  FIC: <=0.125
Pseudomonas aeruginosa [17]
  FIC: 1
[18]
  Activity: Toxic
Staphylococcus aureus [19]
  Activity: Active
Staphylococcus aureus [20]
  Ratio: 2
Staphylococcus aureus [21]
  fold change (FC): 10000
Staphylococcus aureus [22]
  MIC90: 0.39 µM (≈ 0.148 µg/mL)
THP-1
  Activity: Toxic
Enterococcus faecium [23]
  Activity: Active
[24]
  solubility: Insoluble
Escherichia coli [25]
  Ratio: 32
Enterococcus faecalis [26]
  Activity: Active
[27]
  selectivity ratio: 32
Staphylococcus aureus [28]
  Activity: Active
Escherichia coli [29]
  MIC: > 100 µM
Erythrocyte
  Activity: Non-Toxic
Escherichia coli [30]
  FIC: <=0.0313
Escherichia coli [31]
  FIC: 0.064
Staphylococcus aureus [32]
  Activity: Active
Klebsiella pneumoniae [33]
  Ratio: 8
Klebsiella pneumoniae [34]
  FIC: 0.125
Escherichia coli [35]
  fractional inhibitory concentration index (FICI): <=0.0953
Klebsiella pneumoniae [36]
  MIC: > 100 µM
HepG2
  Activity: Toxic
[37]
  inhibition: inactive
Pseudomonas aeruginosa [38]
  fractional inhibitory concentration index (FICI): <=1.0625
Staphylococcus aureus [39]
  Activity: Active
Staphylococcus aureus [40]
  Activity: Active
Acinetobacter baumannii [41]
  MIC: > 100 µM
Enterococcus faecium [42]
  Activity: Active
